Assay results: patent US10774064B2 (Cadent Therapeutics, Inc., priority 2016, dated 2020)

Molecular target: T1, small-conductance Ca2+-activated K+ channels (SK channels, subtype 2) (Homo sapiens, UniProt Q9H2S1)
T1 construct: expressed in transfected cells; host or cells: HEK293
Assay: whole-cell patch-clamp of ionic current through SK2 channels in HEK293 cells (SC100)
Type: cell-based
Settings: concentration that increases the basal current by 100%; HEK293 cells expressing SK2 channels
Procedure, shortened: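 Whole-cell patch-clamp recording of current in HEK293 cells expressing SK2 channels. SC100 is the compound concentration that increases basal current by 100%.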

| SMILES | SC100 |
| --- | --- |
| Cc1cc(C)n(-c2cc(NCc3nnc(C)o3)cc(NC3CCC(F)(F)CC3)n2)n1 [Compound 252, N2-(4,4-difluorocyclohexyl)-6-(3,5-dimethyl-1H-pyrazol-1-yl)-N4-((5-methyl-1,3,4-oxadiazol-2-yl)methyl)pyridine-2,4-diamine] | + (+ means >1 uM) |
| Cc1cc(NC2CCC(F)(F)CC2)nc(-n2cc(C)c(C#N)n2)n1 [Compound 253, 1-(4-((4,4-difluorocyclohexyl)amino)-6-methylpyrimidin-2-yl)-4-methyl-1H-pyrazole-3-carbonitrile] | ++ (++ means 200 nM-1000 nM) |
| Cc1cc(NC2CCC(F)(F)CC2)nc(-n2cc(C)c(CF)n2)n1 [Compound 258, N-(4,4-difluorocyclohexyl)-2-(3-(fluoromethyl)-4-methyl-1H-pyrazol-1-yl)-6-methylpyrimidin-4-amine] | ++ (++ means 200 nM-1000 nM) |
| Cc1cc(C)n(-c2cc(NCc3ncco3)cc(NC3CCC(F)(F)CC3)n2)n1 [Compound 259, N2-(4,4-difluorocyclohexyl)-6-(3,5-dimethyl-1H-pyrazol-1-yl)-N4-(oxazol-2-ylmethyl)pyridine-2,4-diamine] | + (+ means >1 uM) |
| Cc1cc(C)n(-c2cc(OCc3nnc(C)o3)cc(NC3CCC(F)(F)CC3)n2)n1 [Compound 261, N-(4,4-difluorocyclohexyl)-6-(3,5-dimethyl-1H-pyrazol-1-yl)-4-((5-methyl-1,3,4-oxadiazol-2-yl)methoxy)pyridin-2-amine] | ++ (++ means 200 nM-1000 nM) |
| Cc1cc(C)n(-c2nc(NC3CCC(F)(F)CC3)cc(C3=CCCOC3)n2)n1 [Compound 262, N-(4,4-difluorocyclohexyl)-6-(5,6-dihydro-2H-pyran-3-yl)-2-(3,5-dimethyl-1H-pyrazol-1-yl)pyrimidin-4-amine] | ++ (++ means 200 nM-1000 nM) |
| Cc1cc(C)n(-c2cc(OCc3ccc(F)cc3)cc(NC3CCC(F)(F)CC3)n2)n1 [Compound 263, N-(4,4-difluorocyclohexyl)-6-(3,5-dimethyl-1H-pyrazol-1-yl)-4-((4-fluorobenzyl)oxy)pyridin-2-amine] | ++ (++ means 200 nM-1000 nM) |
| COc1ccc(CNc2cc(NC3CCC(F)(F)CC3)nc(-n3nc(C)cc3C)c2)cc1 [Compound 264, N2-(4,4-difluorocyclohexyl)-6-(3,5-dimethyl-1H-pyrazol-1-yl)-N4-(4-methoxybenzyl)pyridine-2,4-diamine] | ++ (++ means 200 nM-1000 nM) |
| Cc1cc(NC2CCC(F)(F)CC2)nc(-c2nc(C3CC3)cs2)n1 [Compound 267, 2-(4-cyclopropylthiazol-2-yl)-N-(4,4-difluorocyclohexyl)-6-methylpyrimidin-4-amine] | + (+ means >1 uM) |
| Cc1cc(C)n(-c2cc(OCc3cnnn3C)cc(NC3CCC(F)(F)CC3)n2)n1 [Compound 268, N-(4,4-difluorocyclohexyl)-6-(3,5-dimethyl-1H-pyrazol-1-yl)-4-((1-methyl-1H-1,2,3-triazol-5-yl)methoxy)pyridin-2-amine] | ++ (++ means 200 nM-1000 nM) |
| Cc1cc(NC2CCC(F)(F)CC2)nc(-c2nc(C(F)(F)F)cs2)n1 [Compound 269, N-(4,4-difluorocyclohexyl)-6-methyl-2-(4-(trifluoromethyl)thiazol-2-yl)pyrimidin-4-amine] | + (+ means >1 uM) |
| Cc1cc(C)n(-c2cc(OCc3ncnn3C)cc(NC3CCC(F)(F)CC3)n2)n1 [Compound 271, N-(4,4-difluorocyclohexyl)-6-(3,5-dimethyl-1H-pyrazol-1-yl)-4-((1-methyl-1H-1,2,4-triazol-5-yl)methoxy)pyridin-2-amine] | ++ (++ means 200 nM-1000 nM) |
| Cc1cc(C)n(-c2nc(NC3CCC(F)(F)CC3)cc(OCc3ncn(C)n3)n2)n1 [Compound 272] | + (+ means >1 uM) |
| Cc1cc(C)n(-c2nc(NC3CCC(F)(F)CC3)cc(OCc3ncnn3C)n2)n1 [Compound 274, N-(4,4-difluorocyclohexyl)-2-(3,5-dimethyl-1H-pyrazol-1-yl)-6-((1-methyl-1H-1,2,4-triazol-5-yl)methoxy)pyrimidin-4-amine] | + (+ means >1 uM) |
| Cc1cc(C)n(-c2cc(OCc3ncn(C)n3)cc(NC3CCC(F)(F)CC3)n2)n1 [Compound 275, N-(4,4-difluorocyclohexyl)-6-(3,5-dimethyl-1h-pyrazol-1-yl)-4-((1-methyl-1H-1,2,4-triazol-3-yl)methoxy)pyridin-2-amine] | + (+ means >1 uM) |
| Cc1cc(C)n(-c2cc(O)cc(NC3CCC(F)(F)CC3)n2)n1 [Compound 276, 2-((4,4-difluorocyclohexyl)amino)-6-(3,5-dimethyl-1H-pyrazol-1-yl)pyridin-4-ol] | + (+ means >1 uM) |
| Cc1cc(NC2CCC(F)(F)CC2)nc(-c2nc(C(F)F)cs2)n1 [Compound 277, N-(4,4-difluorocyclohexyl)-2-(4-(difluoromethyl)thiazol-2-yl)-6-methylpyrimidin-4-amine] | ++ (++ means 200 nM-1000 nM) |
| Cc1cc(NC2CCC(F)(F)CC2)nc(-c2nc(C(C)C)cs2)n1 [Compound 278, N-(4,4-difluorocyclohexyl)-2-(4-isopropylthiazol-2-yl)-6-methylpyrimidin-4-amine] | ++ (++ means 200 nM-1000 nM) |

Further lines, results first:

| SC100 | SMILES |
| --- | --- |
| + (+ means >1 uM) | Cc1cc(C)n(-c2nc(NC3CCC(F)(F)CC3)cc([C@@H]3COCC[C@H]3O)n2)n1 [Compound 254, (+)-3-(6-((4,4-difluorocyclohexyl)amino)-2-(3,5-dimethyl-1H-pyrazol-1-yl)pyrimidin-4-yl)tetrahydro-2H-pyran-4-ol] |
| + (+ means >1 uM) | Cc1cc(C)n(-c2cc(NC(C)c3nccs3)cc(NC3CCC(F)(F)CC3)n2)n1 (centres unmarked) [Compound 255, N2-(4,4-difluorocyclohexyl)-6-(3,5-dimethyl-1H-pyrazol-1-yl)-N4-(1-(thiazol-2-yl)ethyl)pyridine-2,4-diamine] |
| ++ (++ means 200 nM-1000 nM) | Cc1cc(NC2CCC(F)(F)CC2)nc(-n2nc(CF)cc2C)n1 [Compound 256, N-(4,4-difluorocyclohexyl)-2-(3-(fluoromethyl)-5-methyl-1H-pyrazol-1-yl)-6-methylpyrimidin-4-amine] |
| + (+ means >1 uM) | CCc1cc(C)nn1-c1nc(C)cc(NC2CCC(F)(F)CC2)n1 [Compound 260, N-(4,4-difluorocyclohexyl)-2-(5-ethyl-3-methyl-1H-pyrazol-1-yl)-6-methylpyrimidin-4-amine] |
| + (+ means >1 uM) | Cc1cc(NC2CCC(F)(F)CC2)nc(-n2ccc(C(C)(C)O)n2)c1 [Compound 265, 2-(1-(6-((4,4-difluorocyclohexyl)amino)-4-methylpyridin-2-yl)-1H-pyrazol-3-yl)propan-2-ol] |
| ++ (++ means 200 nM-1000 nM) | Cc1cc(C)n(-c2cc3c(ncn3C)c(NC3CCC(F)(F)CC3)n2)n1 [Compound 266, N-(4,4-difluorocyclohexyl)-6-(3,5-dimethyl-1H-pyrazol-1-yl)-1-methyl-1H-imidazo[4,5-c]pyridin-4-amine] |
| + (+ means >1 uM) | Cc1cc(NC2CCC(F)(F)CC2)nc(-c2nc(CO)cs2)n1 [Compound 270, (2-(4-((4,4-difluorocyclohexyl)amino)-6-methylpyrimidin-2-yl)thiazol-4-yl)methanol] |
| ++ (++ means 200 nM-1000 nM) | Cc1cc(NC2CCC(F)(F)CC2)nc(-c2nc(CF)cs2)n1 [Compound 273, N-(4,4-difluorocyclohexyl)-2-(4-(fluoromethyl)thiazol-2-yl)-6-methylpyrimidin-4-amine] |
